# Like-named read-outs stand apart in the source and are kept apart here. Square brackets hold non-standard residues; d marks the D form. Peptide text beside a SMILES is read from it. * marks the point of attachment. X1 = OC[C@H]1O[C@@H](O[C@H]2[C@H](O)[C@@H](O)[C@H](*)O[C@@H]2CO)[C@H](O)[C@@H](O)[C@H]1O
# Experiments:
# [1] = Residual water content by Karl Fischer titration; type: physicochemical; conditions: Karl Fischer coulometric titration, 1–2 mg in anhydrous methanol; mean ± SD, n = 3
# Description: Using conditions similar to previously reported, the residual water content of all powders was quantified by Karl Fischer titration (KFT) […] using a TitroLine® 7500 trace titrator (SI Analytics, Mainz, Germany). Around 1–2 mg of sample was dissolved in 0.5 mL AQUA STAR anhydrous methanol. The sample solution was injected into a reaction cell filled with Hydranal®Coulomat AD reagent; then, a simple calculation obtained the sample’s water content. All experiments were done in triplicate (n = 3).
# [2] = Equilibrium solubility by shake-flask method (SFM); type: physicochemical
# Description: The solubility of the unionized form of raw (unprocessed) Lactomorphin was determined by the shake-flask method (SFM) using conditions similar to previously reported. For each reported solubility result, three independent SFM experiments were carried out in parallel in the following solvents (purified water, PBS, NS, methanol, and ethanol). For each experiment, the solid sample of Lactomorphin was added using a spatula to a specific volume of each solvent in closed, light-protected glass vials while shaking the vial until a heterogeneous system of the solid sample and the solvent was achieved. Samples were visually inspected to ensure that solid Lactomorphin was still in excess in each vial. The solution containing solid excess of the Lactomorphin was then capped and allowed to agitate using the shaker for 24 h at room temperature (25 °C). The presence of precipitation was checked after several hours. If dissolution was complete, more solid Lactomorphin was added to the vial.
# The pH values of Lactomorphin ampholyte suspensions were adjusted to the isoelectric point to determine the solubilities of the zwitterionic species point and to assure the predominant presence of the unionized form of Lactomorphin. The pH of each Lactomorphin suspension in each solvent (except in methanol and ethanol, which were just measured) was adjusted by using 0.1 M NaOH/0.1 M HCl to a value of 8.5. The pH values for all vials were checked after saturation, several hours after the shaking process started, and after equilibrium was achieved. Separating saturated solution and precipitate by sedimentation was performed, which is more accurate than filtration since the filtration step is labor-intensive and tedious, it has been a known issue that drug loss can occur through membrane absorption during filtration in the SFM [32]. Aliquots of supernatant were then taken out with a micropipette from all saturated solutions and diluted with each corresponding solvent. Analytical HPLC measured the concentration of Lactomorphin in each aliquot in against freshly prepared calibration curves. As mentioned above, three independent SFMs were made for each reported result. Thus, the reported results were the mean of three measured concentrations and the standard deviation of the mean (n = 3, mean ± Standard deviation).
# The HPLC system was LC-2010HT next generation HPLC (SHIMADZU Tokyo, Japan), comprised of a degassing unit, low-pressure gradient unit, pump unit, mixer, ultra-fast autosampler, column oven, and a UV-VIS detector with a thermostatted flow cell. System. The analysis was performed by a reverse phase HPLC assay, using Phenomenex Prodigy 5 um ODS (3) 250 × 4.6 mm HPLC Column. Ultraviolet detection was done at 280 nm. Mobile phase conditions were gradient of acetonitrile (CH3CN) in water (H2O) with 0.1% trifluoroacetic acid (F3CCOOH) at a 1 mL/min flow rate. The injection volume was 20 μL; the retention time for Lactomorphin was ~8.5 min. Quantification was determined using peak area and calculated from a nine-point standard curve; standard curve points were prepared by dilution in water.
# [3] = Partition coefficient (LogP) by shake-flask, 1-octanol/water; type: physicochemical; conditions: shake-flask 1-octanol/water (equal volumes, water saturated with octanol), 1 mg/mL, pH 8.5, shaken 24 h then 24 h standing, HPLC-UV 280 nm, mean ± SD, n = 3
# Description: Lipophilicity is a critical physicochemical property that affects ADMET (absorption, distribution, metabolism, excretion, and toxicity). SFM is the most known lipophilicity measurement method, which is based on liquid-liquid extraction using the n-octanol/water system. The partition coefficient of Lactomorphin was measured at the room, and physiological temperatures via SFM using conditions similar to previously reported. The Lactomorphin powder was dispensed into two individual glass vials containing equal volumes of 1-octanol and water to achieve a 1 mg/mL concentration. The water solution in each vial was saturated with octanol before analysis. The pH was measured and fixed to 8.5 value to assure the predominant presence of the unionized form of Lactomorphin. The pH stability in both vials was regularly checked throughout the experiment. The first vial was shaken for 24 h at room temperature. The other one was shaken for 24 h while kept in an incubator at 37 °C. After 24 h, the vials shaking was stopped. […] A sample from each layer was carefully withdrawn and analyzed by the analytical HPLC to measure the concentration of Lactomorphin in each layer then calculate the Partition coefficient (P) and logP using the following equations:(4) P =[neutral solute]oct/[neutral solute]Aq (5) LogP=log10[neutral solute]oct/[neutral solute]Aq […]
# [4] = Thermal degradation study of solid-state Lactomorphin; type: physicochemical; conditions: n = 3
# Source text: Forced degradation is a degradation of new drug substances at conditions more severe than accelerated conditions. The FDA and ICH guidance estate the requirement of stability testing data to understand how the quality of drug changes with time under various environmental conditions. Thermal, hydrolysis, oxidation, and photodegradation are commonly used stress study conditions. Knowledge of a molecule’s stability helps select proper formulation and provide adequate storage conditions and shelf life, which is essential for regulatory documentation. As the temperature is one of the most vital factors that affect the stability of a drug material more than the other conditions, in this study, we performed thermal degradation by exposing samples of solid-state Lactomorphin to dry and wet heat.
# Samples preparation were done by weighing 25 mg of Lactomorphin, transfer it into a 25 mL volumetric flask, and add 25 mL of water and shake so all the quantity dissolved. Using a calibrated micropipette, transfer 0.20 mL of this 1 mg/mL Lactomorphin stock solution into around 90 (2 mL) glass vials. Freeze-dry all vials so that all vials have accurately 0.2 mg of Lactomorphin after lyophilization. A saturated salt solution of NaCl to achieve about 75% Relative Humidity (RH) and saturated salt solution of P2O5 to reach about 0.00% RH were prepared. Thirty vials contain 0.2 mg of Lactomorphin were kept inside a separate desiccator (tightly closed 20 mL glass vial with saturated NaCl). Another set of 30 vials were kept inside the desiccator (tightly closed 20 mL glass vial with saturated P2O5). All were put in oven fixed at 62 °C temperature. To achieve equal distribution of heat inside the oven for all samples used for the degradation study, they were placed in a metallic block made, especially for this study. The rest of the vials were kept in a desiccator at −80 °C to be used as comparison(control) samples.
# According to the regulatory guidelines, there is no specific concentration used for the degradation study; however, 1 mg/mL concentration is recommended. This study used three concentrations by dissolving the stability samples in 0.2 mL, 0.4 mL, and 2 mL water to achieve 1000 μg/mL, 500 μg/mL, and 100 μg/mL concentration, respectively. Analysis of the stability samples was performed every time against a freshly prepared calibration curve and comparison samples (control samples that freshly prepared and injected directly without being exposed to the force degradation conditions) at the following periods: 0.00, 0.08, 0.17, 1, 2, 4, 10, 20, 45, 94 and 133 days. All experiments at each time point and different stability conditions were done in triplicate (n = 3). The HPLC system consisted of a VARIAN ProStar model 330 PDA Detector coupled with a VARIAN ProStar Solvent delivery module and VARIAN ProStar model 430 auto-sampler. The analysis was performed by a reverse phase HPLC assay, using Inspire™ 5 μm C18, 250 × 4.6 mm HPLC Column. Ultraviolet detection was done at 280, 254 and 220 nm, but the quantitation was done at 280 nm only. Mobile phase conditions were gradient according to the above program in Section 2.2.13 and at a flow rate of 1.00 mL/min.
# [5] = tested on: Normal Human Astrocytes (NHA); assay: Resazurin cell viability assay, NHA; conditions: NHA cells, 48 h exposure, 0.1, 1, 10 and 1000 µg/mL, resazurin fluorescence; p > 0.05
# [6] = tested on: H441 lung adenocarcinoma cells; assay: Resazurin cell viability assay, H441; conditions: 48 h exposure, 0.1, 1, 10 and 1000 µg/mL, resazurin fluorescence, p > 0.05
# [7] = tested on: hCMEC/D3 human cerebral microvascular endothelial cells; assay: Resazurin cell viability assay, hCMEC/D3; conditions: 48 h exposure, 0.1, 1, 10 and 1000 µg/mL, resazurin fluorescence, p > 0.05
# [8] = tested on: RPMI 2650 human nasal epithelial cells; assay: Resazurin cell viability assay, RPMI 2650; conditions: RPMI2650 cells, 48 h exposure, 0.1, 1, 10 and 1000 µg/mL, resazurin fluorescence 544/590 nm; p > 0.05
structure (smiles),measurement,setting,value
"OC[C@H]1O[C@H](O[C@H]2O[C@H](CO)[C@@H](O)[C@H](O)[C@H]2O)[C@H](O)[C@@H](O)[C@@H]1O [Raw Trehalose, D (+)-Trehalose dihydrate]",Water % (w/w),[1],8.11 ± 1.96 % (w/w)
"CC(C)C[C@H](NC(=O)[C@H](Cc1ccccc1)NC(=O)CNC(=O)[C@H](NC(=O)[C@@H](N)Cc1ccc(O)cc1)[C@H](C)O)C(=O)N[C@@H](CO[C@@H]1O[C@H](CO)[C@@H](O[C@@H]2O[C@H](CO)[C@H](O)[C@H](O)[C@H]2O)[C@H](O)[C@H]1O)C(N)=O [Lactomorphin, H2N-Tyr-D-Thr- Gly-Phe-Leu-Ser-(O-β-Lactoside)-CONH2] (H-Y[dT]GFLS(X1)-NH2)","Solubility (USP) Definition, PBS","[2]; PBS, pH 8.50 (adjusted), 25 °C","Freely soluble (Fs) (all these solubility values fell in the range of 100–1000 mg/mL, which is the freely soluble category)"
same,solubility thermodynamic at 24 h,"[2]; aqueous buffer, thermodynamic from solid, water, NS and PBS, shake-flask, pH 8.5, 25 °C, read-out: aqueous solubility",> 100 mg/mL
same,"Solubility (USP) Definition, Ethanol","[2]; ethanol, pH 7.30 (measured), 25 °C",Sparingly soluble (sps)
same,"Calculated Log S, NS","[2]; from experimental solubility, footnote: S in mMoleunit, NS, pH 8.50",−0.9
same,"Calculated Log S, PBS","[2]; from experimental solubility, footnote: S in mMoleunit, PBS, pH 8.50",−0.3
same,"Calculated Log S, Ethanol","[2]; from experimental solubility, footnote: S in mMoleunit, ethanol",−1.7
same,"Calculated Log S, Methanol","[2]; from experimental solubility, footnote: S in mMoleunit, methanol",−1.3
same,"Calculated Log S, Water","[2]; from experimental solubility, footnote: S in mMoleunit, water, pH 8.50",−0.6
same,"Solubility (USP) Definition, Methanol","[2]; methanol, pH 7.27 (measured), 25 °C",Soluble (s)
same,solubility thermodynamic at 24 h,"[2]; normal saline (NS), pH 8.5, saline or isotonic, thermodynamic from solid, thermodynamic shake-flask, excess solid, normal saline, pH 8.50 (adjusted), shaken 24 h, 25 °C, HPLC-UV 280 nm, mean ± SD, n = 3, read-out: Solubility in NS",140.4 ± 0.32 mg/mL
same,"Solubility (USP) Definition, NS","[2]; normal saline, pH 8.50 (adjusted), 25 °C","Freely soluble (Fs) (all these solubility values fell in the range of 100–1000 mg/mL, which is the freely soluble category)"
same,solubility thermodynamic at 24 h,"[2]; pH 8.5, aqueous buffer, thermodynamic from solid, thermodynamic shake-flask, excess solid, PBS, pH 8.50 (adjusted), shaken 24 h, 25 °C, HPLC-UV 280 nm, mean ± SD, n = 3, read-out: Solubility in PBS",570.3 ± 2 mg/mL
same,solubility thermodynamic at 24 h,"[2]; pH 8.5, thermodynamic from solid, thermodynamic shake-flask, excess solid raw Lactomorphin, purified water, pH 8.50 (adjusted with 0.1 M NaOH/HCl), shaken 24 h, 25 °C, sedimentation, HPLC-UV 280 nm, mean ± SD, n = 3, read-out: Solubility in Water",267 ± 6 mg/mL
same,Solubility in Ethanol,"[2]; thermodynamic shake-flask, excess solid, ethanol, pH 7.30 (measured), shaken 24 h, 25 °C, HPLC-UV 280 nm, mean ± SD, n = 3",18.00 ± 0.00 mg/mL
same,Solubility in Methanol,"[2]; thermodynamic shake-flask, excess solid, methanol, pH 7.27 (measured), shaken 24 h, 25 °C, HPLC-UV 280 nm, mean ± SD, n = 3",45.67 ± 1.00 mg/mL
same,"Solubility (USP) Definition, Water","[2]; water, pH 8.50 (adjusted), 25 °C","Freely soluble (Fs) (all these solubility values fell in the range of 100–1000 mg/mL, which is the freely soluble category)"
same,Experimental LogP at Room Temperature (25 °C),[3]; 25 °C,−2.40 ± 0.00
same,Experimental LogP at Physiological Temperature (37 °C),[3]; 37 °C,−2.33 ± 0.02
same,Lactomorphin stability% (remaining%),"[4]; solid (lyophilised 0.2 mg), 62 °C / 75% RH, 2 hrs, reconstituted in water to 100, 500, 1000 μg/mL, HPLC-UV 280 nm vs fresh controls",59%
same,Lactomorphin stability% (remaining%),"[4]; solid, 62 °C / 75% RH, 4 hrs, reconstituted 100, 500, 1000 μg/mL, HPLC-UV 280 nm",29%
same,Lactomorphin stability% (remaining%),"[4]; solid, 62 °C / 75% RH, 24 h, reconstituted 100, 500, 1000 μg/mL, HPLC-UV 280 nm",6%
same,Lactomorphin stability% (remaining%),"[4]; solid, 62 °C / RH 0.00%, 10 days, HPLC-UV 280 nm",around 60%
same,Lactomorphin stability% (remaining%),"[4]; solid, 62 °C / RH 0.00%, day 94, HPLC-UV 280 nm",~ 10%
same,Lactomorphin stability% (remaining%),"[4]; solid, 62 °C / RH 0.00%, day 133, HPLC-UV 280 nm",~ 10%
same,Lactomorphin stability% (remaining%),"[4]; solid, 62 °C / RH 0.00%, up to day 45, HPLC-UV 280 nm",around 60%
same,relative cell viability% vs control,[5],no statistically significant difference
same,relative cell viability% vs control,[6],no statistically significant difference
same,relative cell viability% vs control,[7],no statistically significant difference
same,relative cell viability% vs control,[8],no statistically significant difference

# Reference: article PMC7824383, “Organic Solution Advanced Spray-Dried Microparticulate/Nanoparticulate Dry Powders of Lactomorphin for Respiratory Delivery: Physicochemical Characterization, In Vitro Aerosol Dispersion, and Cellular Studies” (Pharmaceutics, 2020)
